Measurements from publication PMC8776894 (Communications Biology, 2022).

Legend:
MCAO/R mice [1] = details: mouse, in vivo
AKT phosphorylation = assay: p-AKT immunoblot under OGD/R with HOE140; type: cell-based; details: HOE140 100 nM, VK 0.0735, 0.735, 7.35 µM
Excerpt: (5 pictures or pasted objects on this page, not shown here)

MCAO/R mice [2] = assay: Evans blue extravasation, BBB permeability; type: in vivo, mouse; details: VK 300 µg/kg
rats = details: BK after transient forebrain ischemia in rats; ref not given; cited from earlier work
Protocol: After the onset of cerebral ischemia stroke, ATP levels expeditiously decline during the first 5 min and fall to ~15–30% of the ATP concentration measured in the non-ischemic hemisphere over the first 2 h after ischemia onset. In the present study, VK therapy partially recovered energy metabolism in the ischemic hemisphere as determined by the detection of ATP and LD content. Furthermore, to illustrate the effect of VK on energy metabolism in neurons, the glycolysis and oxidative phosphorylation pathways in neurons were also evaluated by Seahorse after stroke. Increasing evidence indicates tha ...

[3] = tested on: HT22 hippocampal neuron cells (OGD/R); assay: Live-cell imaging of FITC-labeled VK; type: cell-based, mouse; details: HT22 cells after OGD/R, 7.35 µM (b12; method b96: 100 nM), 37 °C, confocal fluorescence
Protocol: VK (Gly–Arg–Pro–Hyp–[…]NH2) was labeled with FITC in the N-terminus. VK (100 nM) was added to each well and, after 15 min of incubation at 37 °C, live-cell images were acquired and processed by confocal microscopy (Zeiss LSM 880). Live-cell images were recorded for 90 min. The negative group was FITC treated without labeled VK.
After 24 h, medium in the transwell
Cell cultures, treatment, and OGD.
Experiments were divided into the four

brain of MCAO mice = assay: Fluorescence imaging of FITC-labeled VK in brain of stroke mice; type: in vivo, mouse; details: stroke mice, brains collected at 0, 30, 60, 90, 120 min, confocal microscopy of sections
Protocol: A successful MCAO model was established and these mice were used for subsequent experiments. Immediately after surgery, FITC or FITC-labeled VK were administered intravenously and mice were killed after 30 min to isolate the brain and imaged by an imaging system (IVIS Lumina II). For fluorescent imaging, the brain was immediately collected and kept in the dark for 0, 30, 60, and 90 min after the administration of VK. Frozen sections were prepared according to the above method (seen Morphological Assessment). Images were acquired by confocal microscopy (FV1000 MPE-B, Olympus).

## HOE140
MCAO/R mice [1]
  major pharmacological effects of VK under HOE140 preconditioning: blocked
AKT phosphorylation
  VK-mediated AKT activation: inhibit VK-mediated AKT activation
MCAO/R mice [2]
  BBB integrity under combined administration of VK and HOE140, EB extravasation: damaged the BBB integrity

## bradykinin (RPPGFSPFR; Bradykinin; UniProt P01042 381-389, looked up) [BK, endogenous peptide]
rats
  neuroprotection: 97%

## Lys-(des-Arg9-Leu8)-BK [reference compound]
MCAO/R mice [1]
  functional injury under combination of VK and B1R antagonist: improved functional injury

## CC[C@H](C)[C@H](NC(=O)[C@H](CCCNC(=N)N)NC(=O)[C@H](Cc1ccccc1)NC(=O)[C@@H]1CCCN1C(=O)[C@H](CO)NC(=O)[C@H](Cc1ccccc1)NC(=O)CNC(=O)[C@@H]1C[C@@H](O)CN1C(=O)[C@@H]1CCCN1C(=O)[C@H](CCCNC(=N)N)NC(=O)CNC(=S)Nc1ccc2c(c1)C(=O)OC21c2ccc(O)cc2Oc2cc(O)ccc21)C(=O)N[C@@H](CC(=O)O)C(N)=O [FITC-labeled VK]
[3]
  crossing of the cell membrane, live-cell imaging: partially crossed the cell membrane
Brain of MCAO mice
  distribution in brain regions: seen in the cortex, hippocampus, and striatum
